Source: patent US8143263B2, “Therapeutic agents” (Astrazeneca AB, priority 2008, dated 2012)
pEC50: −log10 of the molar value.

biological target: T1, recombinant human pancreatic GLK (Homo sapiens, UniProt P35557); assay: biochemical
T1 sequence (P35557 1-465): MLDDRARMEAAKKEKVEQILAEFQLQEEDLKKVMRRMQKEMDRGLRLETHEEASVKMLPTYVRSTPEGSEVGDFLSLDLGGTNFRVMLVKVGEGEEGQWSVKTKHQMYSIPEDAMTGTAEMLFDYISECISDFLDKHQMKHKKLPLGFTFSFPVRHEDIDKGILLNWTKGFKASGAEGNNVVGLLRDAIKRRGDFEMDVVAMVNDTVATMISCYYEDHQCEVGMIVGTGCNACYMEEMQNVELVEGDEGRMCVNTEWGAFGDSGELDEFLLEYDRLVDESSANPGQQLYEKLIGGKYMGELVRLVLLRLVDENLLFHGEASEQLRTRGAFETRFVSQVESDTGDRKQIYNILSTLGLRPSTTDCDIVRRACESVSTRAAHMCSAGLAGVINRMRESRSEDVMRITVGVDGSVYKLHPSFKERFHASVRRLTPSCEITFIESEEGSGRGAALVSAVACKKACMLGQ

Compound | pEC50
Cc1ccc(NC(=O)[C@H](COC2CCC2)Oc2ncnc3c2cnn3-c2nccnc2C)nc1 [Example 144, (2S)-3-(cyclobutoxy)-2-[1-(3-methylpyrazin-2-yl)pyrazolo[4,5-e]pyrimidin-4-yl]oxy-N-(5-methyl-2-pyridyl)propanamide] | 6.29
Cc1ccc(NC(=O)[C@H](Oc2ncnc3c2cnn3-c2ccccc2Cl)C(C)C)nc1 [Example 85, (2R)-2-(1-(2-chlorophenyl)-1H-pyrazolo[3,4-d]pyrimidin-4-yloxy)-3-methyl-N-(5-methylpyridin-2-yl)butanamide] | 5.02
Cc1ccc(NC(=O)[C@H](CCNS(C)(=O)=O)Oc2ncnc3c2cnn3-c2ccccc2Cl)nc1 [Example 164, (2S)-2-(1-(2-chlorophenyl)-1H-pyrazolo[3,4-d]pyrimidin-4-yloxy)-N-(5-methylpyridin-2-yl)-4-(methylsulfonamido)butanamide] | 6.03
COCCOCCC(Sc1ncnc2c1cnn2-c1ccccc1Cl)C(=O)Nc1nc(C)cs1 (stereo not shown) [Example 52, 2-{[1-(2-chlorophenyl)-1H-pyrazolo[3,4-d]pyrimidin-4-yl]thio}-4-(2-methoxyethoxy)-N-(4-methyl-1,3-thiazol-2-yl)butanamide] | 5.54
O=C(Nc1ccccn1)[C@H](COCCO)Oc1ncnc2c1cnn2-c1ccccc1C(F)(F)F [Example 199, (2S)-3-(2-hydroxyethoxy)-N-(pyridin-2-yl)-2-(1-(2-(trifluoromethyl)phenyl)-1H-pyrazolo[3,4-d]pyrimidin-4-yloxy)propanamide] | 5.96
Cc1cnc(NC(=O)[C@H](CCO)Oc2ncnc3c2cnn3-c2ncccc2Cl)cn1 [Example 143a, (2S)-2-[1-(3-chloro-2-pyridyl)pyrazolo[4,5-e]pyrimidin-4-yl]oxy-4-hydroxy-N-(5-methylpyrazin-2-yl)butanamide] | 5.59
Cc1ccc(NC(=O)[C@H](COC2CCC2)Oc2ncnc3c2cnn3-c2ncccc2Cl)nc1 [Example 158, (2S)-2-(1-(3-chloropyridin-2-yl)-1H-pyrazolo[3,4-d]pyrimidin-4-yloxy)-3-cyclobutoxy-N-(5-methylpyridin-2-yl)propanamide] | 6.82
N#Cc1ccc(NC(=O)[C@H](COCCO)Oc2ncnc3c2cnn3-c2cccc(Cl)c2Cl)nc1 [Example 203, (2S)—N-(5-cyanopyridin-2-yl)-2-(1-(2,3-dichlorophenyl)-1H-pyrazolo[3,4-d]pyrimidin-4-yloxy)-3-(2-hydroxyethoxy)propanamide] | 6.08
O=C(Nc1ccc(F)cn1)[C@H](CN1CC(O)C1)Oc1ncnc2c1cnn2-c1c(Cl)cccc1Cl [Example 230, (2S)-2-[1-(2,6-dichlorophenyl)pyrazolo[3,4-d]pyrimidin-4-yl]oxy-N-(5-fluoro-2-pyridyl)-3-(3-hydroxyazetidin-1-yl)propanamide] | 6.96
Cc1nsc(NC(=O)[C@H](COC(C)C)Oc2ncnc3c2cnn3-c2ncccc2Cl)n1 [Example 93, (2S)-2-(1-(3-chloropyridin-2-yl)-1H-pyrazolo[3,4-d]pyrimidin-4-yloxy)-3-isopropoxy-N-(3-methyl-1,2,4-thiadiazol-5-yl)propanamide] | 5.48
CC(C)OC[C@H](Oc1ncnc2c1cnn2-c1ccccc1Cl)C(=O)Nc1ccc(Cl)cn1 [Example 115a, (2S)-2-[1-(2-chlorophenyl)pyrazolo[4,5-e]pyrimidin-4-yl]oxy-N-(5-chloro-2-pyridyl)-3-isopropoxy-propanamide] | 7.01
Cc1cccnc1-n1ncc2c(O[C@@H](COC(C)C)C(=O)Nc3ccc(C#N)cn3)ncnc21 [Example 127a, (2S)—N-(5-cyanopyridin-2-yl)-3-isopropoxy-2-(1-(3-methylpyridin-2-yl)-1H-pyrazolo[3,4-d]pyrimidin-4-yloxy)propanamide] | 5.96
Cc1ccc(NC(=O)[C@H](CCO)Oc2ncnc3c2cnn3-c2ccccc2Cl)nc1 [Example 145, (2S)-2-[1-(2-chlorophenyl)pyrazolo[4,5-e]pyrimidin-4-yl]oxy-4-hydroxy-N-(5-methyl-2-pyridyl)butanamide] | 6.64
Cc1cnc(NC(=O)[C@H](COC2CCC2)Oc2ncnc3c2cnn3-c2ccccc2Cl)cn1 [Example 156, (2S)-2-(1-(2-chlorophenyl)-1H-pyrazolo[3,4-d]pyrimidin-4-yloxy)-3-cyclobutoxy-N-(5-methylpyrazin-2-yl)propanamide] | 7.06
COc1ccnc(NC(=O)[C@H](COC(C)C)Oc2ncnc3c2cnn3-c2ncccc2Cl)c1 [(2S)-2-[1-(3-chloro-2-pyridyl)pyrazolo[4,5-e]pyrimidin-4-yl]oxy-3-isopropoxy-N-(4-methoxy-2-pyridyl)propanamide] | < 4.00
CCC(C)C(Sc1ncnc2c1cnn2-c1ccccc1Cl)C(=O)Nc1ccc(C)cn1 (stereo not shown) [Example 56, 2-{[1-(2-chlorophenyl)-1H-pyrazolo[3,4-d]pyrimidin-4-yl]thio}-3-methyl-N-(5-methylpyridin-2-yl)pentanamide] | 5.51

Compound | pEC50
CCOC[C@H](Oc1ncnc2c1cnn2-c1ncccc1Cl)C(=O)Nc1ccc(F)cn1 [Example 127d, (2S)-2-[1-(3-chloro-2-pyridyl)pyrazolo[4,5-e]pyrimidin-4-yl]oxy-3-ethoxy-N-(5-fluoro-2-pyridyl)propanamide] | 6.17
COCCC(Oc1ncnc2c1cnn2-c1cccc(OC)c1)C(=O)Nc1ccc(C)cn1 (stereo not shown) [Example 13, 4-methoxy-2-{[1-(3-methoxyphenyl)-1H-pyrazolo[3,4-d]pyrimidin-4-yl]oxy}-N-(5-methylpyridin-2-yl)butanamide] | 5.85
C[C@H](CO)OC[C@H](Oc1ncnc2c1cnn2-c1ccccc1Cl)C(=O)Nc1ccccn1 [Example 200, (2S)-2-(1-(2-chlorophenyl)-1H-pyrazolo[3,4-d]pyrimidin-4-yloxy)-3-((R)-1-hydroxypropan-2-yloxy)-N-(pyridin-2-yl)propanamide] | 6.36
Cc1ccc(NC(=O)[C@H](CCS(C)(=O)=O)Oc2ncnc3c2cnn3-c2ccccc2Cl)nc1 [Example 161, -(2S)-2-(1-(2-chlorophenyl)-1H-pyrazolo[3,4-d]pyrimidin-4-yloxy)-N-(5-methylpyridin-2-yl)-4-(methylsulfonyl)butanamide] | 6.21
CCOC(Sc1ncnc2c1cnn2-c1ccccc1OC)C(=O)Nc1ccon1 (stereo not shown) [Example 72, 2-Ethoxy-N-isoxazol-3-yl-2-{[1-(2-methoxyphenyl)-1H-pyrazolo[3,4-d]pyrimidin-4-yl]thio}acetamide] | 5.54
COCC[C@@H](Oc1ncnc2c1cnn2-c1ccccc1C)C(=O)Nc1ccc(C)cn1 [Example 18, (R)-4-methoxy-2-{[1-(2-methylphenyl)-1H-pyrazolo[3,4-d]pyrimidin-4-yl]oxy}-N-(5-methylpyridin-2-yl)butanamide] | 4.49
COCCC(Oc1ncnc2c1cnn2-c1ccc(F)cc1F)C(=O)Nc1ccc(C)cn1 (stereo not shown) [Example 25, 2-{[1-(2,4-Difluorophenyl)-1H-pyrazolo[3,4-d]pyrimidin-4-yl]oxy}-4-methoxy-N-(5-methylpyridin-2-yl)butanamide] | 5.92
CCCCC(Oc1ncnc2c1cnn2-c1ccccc1Cl)C(=O)Nc1ccc(C)cn1 (stereo not shown) [Example 38, 2-{[1-(2-chlorophenyl)-1H-pyrazolo[3,4-d]pyrimidin-4-yl]oxy}-N-(5-methylpyridin-2-yl)hexanamide] | 7.70
O=C(Nc1ccccn1)[C@H](CN1CC(O)C1)Oc1ncnc2c1cnn2-c1ccccc1Cl [Example 225, (2S)-2-[1-(2-chlorophenyl)pyrazolo[3,4-d]pyrimidin-4-yl]oxy-3-(3-hydroxyazetidin-1-yl)-N-(2-pyridyl)propanamide] | 6.66
COc1ccccc1-n1ncc2c(O[C@H](CCS(C)(=O)=O)C(=O)Nc3ccc(C)cn3)ncnc21 [Example 11, (R)-2-{[1-(2-methoxyphenyl)-1H-pyrazolo[3,4-d]pyrimidin-4-yl]oxy}-N-(5-methylpyridin-2-yl)-4-(methylsulfonyl)butanamide] | ≤ 4.00
N#Cc1cccc(Cl)c1-n1ncc2c(O[C@@H](CN3CCC3)C(=O)Nc3ccccn3)ncnc21 [Example 221, (2S)-3-(azetidin-1-yl)-2-[1-(2-chloro-6-cyano-phenyl)pyrazolo[3,4-d]pyrimidin-4-yl]oxy-N-(2-pyridyl)propanamide] | 6.51
Cc1ccc(NC(=O)C(CCC(N)=O)Oc2ncnc3c2cnn3-c2ccccc2Cl)nc1 (stereo not shown) [Example 50, 2-{[1-(2-chlorophenyl)-1H-pyrazolo[3,4-d]pyrimidin-4-yl]oxy}-N1-(5-methylpyridin-2-yl)pentanediamide] | 6.23
Cc1ccc(C#N)cc1-n1ncc2c(O[C@@H](COCCO)C(=O)Nc3ccc(C#N)cn3)ncnc21 [Example 183, (2S)-2-(1-(5-cyano-2-methylphenyl)-1H-pyrazolo[3,4-d]pyrimidin-4-yloxy)-N-(5-cyanopyridin-2-yl)-3-(2-hydroxyethoxy)propanamide] | 5.11
COC[C@H](Oc1ncnc2c1cnn2-c1ccc(F)cc1Cl)C(=O)Nc1ccc(C)cn1 [Example 96, (2S)-2-(1-(2-chloro-4-fluorophenyl)-1H-pyrazolo[3,4-d]pyrimidin-4-yloxy)-3-methoxy-N-(5-methylpyridin-2-yl)propanamide] | 5.89
Cc1ccc(NC(=O)[C@@H](Oc2ncnc3c2cnn3-c2ccccc2Cl)C(C)C)nc1 [Example 84, (2S)-2-(1-(2-chlorophenyl)-1H-pyrazolo[3,4-d]pyrimidin-4-yloxy)-3-methyl-N-(5-methylpyridin-2-yl)butanamide] | 6.33
